Measurements from ChEMBL document CHEMBL1146404, “Antihyperglycemic activity of phenolics from Pterocarpus marsupium” (1997).

How the values were obtained:
Type in all cases: functional
Rattus norvegicus [1] = test: Antihyperglycemic activity in streptozotocin-induced nonfasted diabetic rat assessed as decrease in blood glucose level at 20 mg/kg, po administered for 3 days measured 1 hr after last dose; design: scale not given: the % may be the effect or the level left
Rattus norvegicus [2] = species: Rattus norvegicus; test: Decrease in body weight in nondiabetic rat; design: scale not given: the % may be the effect or the level left
Rattus norvegicus [3] = test: Effect on nondiabetic rat assessed as blood glucose level per 100 mL at 20 mg/kg, po
Rattus norvegicus [4] = test: Antihyperglycemic activity in streptozotocin-induced nonfasted diabetic rat assessed as decrease in blood glucose level at 30 mg/kg, po administered for 3 days measured 1 hr after last dose; design: scale not given: the % may be the effect or the level left

SMILES: COc1cc(O)cc2c1C(=O)C(O)(Cc1ccc(O)cc1)O2 (configuration not stated) [CARPUSIN]
- Activity (Rattus norvegicus [1]): 33%
- Activity (Rattus norvegicus [2]): 20%
- Activity (Rattus norvegicus [3]): 64%

SMILES: CN(C)C(=N)NC(=N)N [METFORMIN]
- Activity (Rattus norvegicus [4]): 48%

SMILES: COc1cc(/C=C/c2ccc(O)cc2)cc(OC)c1 [PTEROSTILBENE]
- Activity (Rattus norvegicus [1]): 11%
- Activity (Rattus norvegicus [2]): 20%
- Activity (Rattus norvegicus [3]): 65%
